# From patent publication US8999964B2, “TGR5 modulators and methods of use thereof” (Intercept Pharmaceuticals, Inc., priority 2008, dated 2015)
# Where two headings read alike, the source gives them in different places. Marks after values point to notes of the source that are not given here.
# Tests used:
# hFXR = biological target: T1, hFXR (Homo sapiens, UniProt Q96RI1); test: Alphascreen coactivator recruitment assay on FXR; conditions: Table 6; coactivator recruitment (Alphascreen)
# T1 sequence (Q96RI1 262-486 limits assumed): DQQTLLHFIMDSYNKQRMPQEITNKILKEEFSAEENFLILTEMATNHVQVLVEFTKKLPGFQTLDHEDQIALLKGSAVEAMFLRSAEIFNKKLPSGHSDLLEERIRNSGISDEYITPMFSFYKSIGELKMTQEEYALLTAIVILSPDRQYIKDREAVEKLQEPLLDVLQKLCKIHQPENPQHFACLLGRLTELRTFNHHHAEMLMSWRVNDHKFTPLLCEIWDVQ
# Procedure: Activity on FXR was assayed by using Alphascreen technology in a coactivator recruitment assay. AlphaScreen is a bead-based chemistry assay used to study biomolecular interactions. Binding of molecules captured on the beads leads to an energy transfer from one bead to the other, ultimately producing a luminescent signal. When the partners interact, chemical energy is transferred from Donor to Acceptor beads and a signal is produced. Upon bile acids stimulation the GST-FXR-LBD interacts with the Src-1 peptide. Anti-GST-coated Acceptor beads were used to capture the GST-fusion FXR-LBD whereas the biotinylated-SRC-1 peptide was captured by the streptavidin Donor beads. Upon illumination at 680 nm chemical energy is transferred from Donor to Acceptor beads across the complex streptavidin-Donor/Src-1-Biotin/GSTFXR-LBD/Anti-GST-Acceptor and a signal is produced. The assay was performed in white, low-volume, 384-well Optiplates (PerkinElmer) using a final volume of 25 μl containing final concentrations of 10 nM of purified GST-tagged FXR-LBD protein, 30 nM biotinylated Src-1 peptide, 20 μg/ml anti-GST acceptor beads acceptor beads and 10 μg/ml of streptavidin donor bead (PerkinElmer). […] After the addition of the detection mix (acceptor and donor beads), the plates were incubated in the dark for 4 h at room temperature and then were read with an Envision microplate analyzer (PerkinElmer). […]
# in vitro = conditions: human
# bovine serum albumin [1] = biological target: T2, bovine serum albumin (Bos taurus, UniProt P02769); test: Albumin binding by equilibrium dialysis; type: in vitro ADME; set-up: 5% bovine serum albumin-saline solution (pH 7.2); from tissue; host or cells: bovine serum (by the name of the product); conditions: 100 μM BA in 5% bovine serum albumin-saline, pH 7.2
# T2 sequence (P02769 25-607): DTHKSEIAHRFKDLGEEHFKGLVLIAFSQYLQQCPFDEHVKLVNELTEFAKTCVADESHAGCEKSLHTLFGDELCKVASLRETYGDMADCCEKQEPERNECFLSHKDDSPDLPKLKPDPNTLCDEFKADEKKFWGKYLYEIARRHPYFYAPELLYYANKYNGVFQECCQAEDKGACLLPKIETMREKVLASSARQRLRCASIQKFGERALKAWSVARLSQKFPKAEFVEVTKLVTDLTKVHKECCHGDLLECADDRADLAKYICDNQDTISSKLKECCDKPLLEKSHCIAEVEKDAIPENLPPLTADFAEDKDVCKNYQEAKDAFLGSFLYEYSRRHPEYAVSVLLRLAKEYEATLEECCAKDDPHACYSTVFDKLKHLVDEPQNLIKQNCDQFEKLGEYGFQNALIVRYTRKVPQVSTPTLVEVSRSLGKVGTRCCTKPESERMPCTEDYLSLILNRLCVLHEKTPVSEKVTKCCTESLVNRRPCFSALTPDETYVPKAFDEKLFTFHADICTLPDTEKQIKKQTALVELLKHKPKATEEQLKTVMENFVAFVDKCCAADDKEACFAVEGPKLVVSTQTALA
# Procedure: The extent of albumin binding was evaluated by equilibrium dialysis at a fixed BA-albumin ratio. Each BA was dissolved at a concentration of 100 μM in 5% bovine serum albumin-saline solution (pH 7.2) and left to stand for 24 h at 25° C. Two milliliters of this solution was dialyzed in cellulose sacs having a molecular weight cut-off of 12,000-14,000 Dalton against 25 ml of saline solution. The system was equilibrated by gently shaking for 72 h at 25° C. BA concentrations of the dialyzed solution (corresponding to the free unbound fraction) and of the starting solution were determined with HPLC-ESI-MS/MS in the same conditions of the previous analysis.
# The percentage of albumin binding was calculated from the initial BA concentration and from the unbound concentration in the dialyzed fraction.
# [2] = 1-Octanol/water partition coefficient (shake-flask); conditions: bile acids as ionized species, pH 8
# Procedure: (§1) The octanol/water partition coefficient was measured for molecules in their ionized form and therefore the carboxy analogues were studied at a relatively high pH (8 to 9) to ensure full ionization of the carboxyl group. The 1-Octanol/water partition coefficient (log P) was evaluated using a conventional shake-flask procedure. […] The aqueous buffer was previously pre-saturated with 1-octanol, 5 ml of 1-octanol pre-saturated with water was then added and the samples were left to equilibrate for 2 weeks under continuous stirring at room temperature. After centrifugation the two phases were carefully separated. […] The flow rate was 150 μal/min and the column was maintained at 45° C.
# [3] = Bile fistula rat, femoral (iv) infusion: bile flow, biliary secretion, metabolism; conditions: iv infusion, bile fistula rat
# HepG2 cells [4] = test: HepG2 necrosis (LDH release); type: cell-based; conditions: Homo sapiens, HepG2, 4 h, read-out: NECROSIS LDH release EC50
# [5] = Critical micellar concentration by surface tension measurements; type: physicochemical; conditions: […] NaCl water solution
# Procedure: The critical micellar concentration (CMC) was determined by surface tension (ST) measurements using a maximum bubble-pressure method which give surface tension values slightly affected by potential impurities […] static methods. […] The surface tension values were plotted against the logarithm of the bile salt concentration; the regression lines corresponding to the two parts of the curve (monomeric and micellar phases) were calculated using the method of least squares, and the intersection of the lines was taken as the CMC value. From the ST vs concentration curves the value of the surface tension at the CMC (equilibrium between monomers and multimers species) was also calculated giving information about the detergency power which is related to the size of the micelles with associate surface tension lowering capacity. The CMC was evaluated by surface tension measurements in non equilibrium conditions i.e. in conditions that impurities slightly affect the surface tension results (FIG. 6). […] The presence of a hydroxyl group in the C-16 beta position reduces the hydrophobic area responsible for back to back interaction, which is to form micelles and therefore, the micelles are small and poorly detergent. This property confers to the molecule a low toxicity when accumulated in a given biological fluid or organ.
# intestinal bacteria = test: In vitro metabolic stability in human stools culture; type: in vitro ADME
# Procedure: Homogenized fresh human stools (500 mg) were transferred into sterile vials to which 5 mL of sterilized chopped meat-glucose medium (Scott Lab., Fiskville, R.I.) was added. BAs were then added at a final concentration of 0.05 mM. Vials were incubated at 37° C.; then, at 0, 1, 2, 4, 8 and 24 h after the addition of the BA, the reaction was stopped with 150 μL of 30% KOH. The samples were centrifuged at 3500 rpm for 10 min; from the supernatant the BA were isolated by C-18 solid-phase extraction and analyzed by TLC and HPLC-ES-MS/MS.
# Thin-layer chromatography (TLC), utilizing silica gel 0.25 mm thickness plates (Merck, Darmstat, Germany), was employed as the first screening test. The solvent system used for the separation of conjugated BA was composed of propionic acid/isoamyl acetate/water/N-propanol (3:4:1:2, v/v/v/v; solvent I), and that of the unconjugated BA was acetic acid/carbon tetrachloride/isopropyl ether/isoamyl acetate/water/N-propanol/benzene (1:4:6:8:2:2, v/v/v/v/v/v; solvent II).
# HepG2 cells [6] = test: HepG2 apoptosis (caspase-3 activation); type: cell-based; conditions: Homo sapiens, HepG2, 4 h, read-out: APOPTOSIS Caspase-3 activation EC50
# [7] = […] NaCl water solution; *values from literature; cited from earlier work
# bovine serum albumin [8] = biological target: T2, bovine serum albumin; conditions: cited from earlier work
# [9] = previous study, cited from earlier work
# HepG2 cells [10] = test: HepG2 cytotoxicity (ATP decrease, ATP-Lite); conditions: read-out: CYTOTOXICITY ATP decrease EC50, 4 h
# [11] = pH 1
# PPARδ = biological target: T3, PPARδ (Homo sapiens, UniProt Q03181); test: PPARδ activation, NR selectivity assay; conditions: Table 6
# T3 sequence (Q03181 211-439 limits assumed): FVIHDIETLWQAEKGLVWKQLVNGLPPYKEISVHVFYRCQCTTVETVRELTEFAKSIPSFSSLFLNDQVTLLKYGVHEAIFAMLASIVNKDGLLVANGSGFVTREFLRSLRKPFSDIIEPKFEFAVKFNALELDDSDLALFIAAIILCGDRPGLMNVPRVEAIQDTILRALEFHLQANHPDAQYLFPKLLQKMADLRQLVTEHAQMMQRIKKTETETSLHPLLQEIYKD
# [12] = pH 8
# Procedure: as §1
# LXRα = biological target: T4, LXRα (Homo sapiens, UniProt Q13133); test: LXR coactivator recruitment (Alphascreen); type: biochemical; conditions: Table 6
# T4 sequence (Q13133 1-447): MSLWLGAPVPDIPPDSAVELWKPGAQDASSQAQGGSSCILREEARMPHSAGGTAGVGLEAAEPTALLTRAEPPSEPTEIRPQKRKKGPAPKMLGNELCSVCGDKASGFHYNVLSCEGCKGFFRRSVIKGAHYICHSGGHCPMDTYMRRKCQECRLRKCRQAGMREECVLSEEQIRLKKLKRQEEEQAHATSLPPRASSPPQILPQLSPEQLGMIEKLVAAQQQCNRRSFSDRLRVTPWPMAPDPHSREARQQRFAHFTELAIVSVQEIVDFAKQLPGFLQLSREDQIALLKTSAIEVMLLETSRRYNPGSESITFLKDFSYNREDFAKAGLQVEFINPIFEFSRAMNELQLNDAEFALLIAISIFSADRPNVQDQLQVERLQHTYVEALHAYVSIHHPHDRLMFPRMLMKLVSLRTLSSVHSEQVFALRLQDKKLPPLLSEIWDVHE
# CAR = biological target: T5, CAR (Homo sapiens, UniProt Q14994); test: CAR coactivator recruitment (Lanthascreen); type: biochemical; conditions: Table 6; *: data representing inverse agonism; read-out: CAR Activation EC50
# T5 construct: purchased Invitrogen
# T5 sequence (Q14994 109-352 limits assumed): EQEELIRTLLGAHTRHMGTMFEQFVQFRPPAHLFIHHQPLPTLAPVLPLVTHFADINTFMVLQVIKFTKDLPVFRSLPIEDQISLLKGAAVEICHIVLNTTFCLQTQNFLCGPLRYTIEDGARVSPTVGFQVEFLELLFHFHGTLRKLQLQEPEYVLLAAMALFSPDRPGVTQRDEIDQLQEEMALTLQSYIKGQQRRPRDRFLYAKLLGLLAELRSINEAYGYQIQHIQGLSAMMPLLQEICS
# VDR = biological target: T6, VDR (Homo sapiens, UniProt P11473); test: VDR activation, NR selectivity assay; type: biochemical; conditions: Table 6
# T6 construct: purchased Invitrogen
# T6 sequence (P11473 127-423 limits assumed): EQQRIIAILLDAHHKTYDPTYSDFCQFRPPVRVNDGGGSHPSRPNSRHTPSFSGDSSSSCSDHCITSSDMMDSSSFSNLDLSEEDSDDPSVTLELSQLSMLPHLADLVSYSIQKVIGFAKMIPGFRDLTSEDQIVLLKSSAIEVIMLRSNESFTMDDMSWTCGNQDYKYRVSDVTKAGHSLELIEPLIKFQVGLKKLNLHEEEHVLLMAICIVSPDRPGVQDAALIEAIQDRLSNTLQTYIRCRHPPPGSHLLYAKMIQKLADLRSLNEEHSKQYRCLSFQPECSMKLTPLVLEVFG
# HepG2 cells [13] = system: HepG2 cells
structure (smiles),measurement,setting,value
"C[C@H](CCC(=O)O)[C@H]1CC[C@H]2[C@@H]3[C@H](O)C[C@@H]4C[C@H](O)CC[C@]4(C)[C@H]3C[C@H](O)[C@]12C [CA, cholic acid, reference compound]",FXR Activation EC50,hFXR,No activity
"C[C@H](CCC(=O)O)[C@H]1CC[C@H]2[C@@H]3[C@H](O)C[C@@H]4C[C@H](O)CC[C@]4(C)[C@H]3CC[C@]12C [CDCA, chenodeoxycholic acid, reference compound]",EC50 at 4 h,in vitro,650 µM
same,Albumin Binding,bovine serum albumin [1],93%
same,LogPA-: 1-octanol-water partition coefficient,[2],2.2
same,Bile flow with respect to control,[3],No significant differences
same,Maximum bile flow rate,[3]; control 70,4.8 mL/h/kg
same,EC50,HepG2 cells [4],> 1000 µM
same,CMC […] Na+,[5],3.2 mM
same,STCMC: Surface Tension at CMC,[5],45.5 Dyne/cm
same,Metabolism in human stool cultures,intestinal bacteria,almost completely metabolized
same,Half-life time in human stool cultures,"intestinal bacteria; 7α-dehydroxylation, 0.05 mM, 37° C.",almost one hour
same,EC50,HepG2 cells [6],890 µM
C[C@H](CCC(=O)O)[C@H]1CCC2C3C(CC[C@@]21C)[C@@]1(C)CC[C@@H](O)CC1[C@@H](C)[C@@H]3O (some centres unmarked) [Compound 6MUDCA],CMC […] Na+,[7],4.2* mM
same,Albumin Binding,bovine serum albumin [8],80* %
"C[C@H](CCC(=O)O)[C@H]1CC[C@H]2[C@@H]3CC[C@@H]4C[C@H](O)CC[C@]4(C)[C@H]3CC[C@]12C [LCA, lithocholic acid]",EC50,HepG2 cells [4],105 µM
same,EC50,HepG2 cells [6],65 µM
"CC1(C)CC[C@]2(C(=O)O)CC[C@]3(C)C(=CC[C@@H]4[C@@]5(C)CC[C@H](O)C(C)(C)[C@@H]5CC[C@]43C)[C@@H]2C1 [OA, oleanolic acid]",Toxicity in animals,[9]; 100 mg/kg/day,some signs of toxicity
same,Tolerability in animals,[9]; lower dose than 100 mg/kg/day,well tolerated
CN[C@@H]1C[C@H]2O[C@@](C)([C@@H]1OC)n1c3ccccc3c3c4c(c5c6ccccc6n2c5c31)C(=O)NC4 [Staurosporine],EC50,HepG2 cells [10],15 µM
C[C@H](CCC(=O)NCCS(=O)(=O)O)[C@H]1CC[C@H]2[C@@H]3[C@H](O)C[C@@H]4C[C@H](O)CC[C@]4(C)[C@H]3CC[C@]12C [TCDCA],CMC […] Na+,[7],3.0* mM
same,Ws: water solubility,[11],hs
same,Albumin Binding,bovine serum albumin [8],70* %
C[C@H](CCC(=O)NCCS(=O)(=O)O)[C@H]1CC[C@H]2[C@@H]3[C@@H](O)C[C@@H]4C[C@H](O)CC[C@]4(C)[C@H]3CC[C@]12C [TUDCA],CMC […] Na+,[7],2.2* mM
same,Ws: water solubility,[11],hs
same,Albumin Binding,bovine serum albumin [8],67* %
C[C@H](CCC(=O)O)[C@H]1CC[C@H]2[C@@H]3[C@@H](O)C[C@@H]4C[C@H](O)CC[C@]4(C)[C@H]3CC[C@]12C [UDCA],PPARδ Activation EC50,PPARδ,No activity
same,Albumin Binding,bovine serum albumin [1],94%
same,LogPA-: 1-octanol-water partition coefficient,[12],2.2
same,LXRα Activation EC50,LXRα,No activity
same,EC50,CAR,> 250 µM
same,VDR Activation EC50,VDR,No activity
same,CMC […] Na+,[5],6.0 mM
same,STCMC: Surface Tension at CMC,[5],50.5 Dyne/cm
same,EC50,HepG2 cells [13],> 1000 µM
same,Ws: water solubility,[11],7.5 µM
